Measured values: patent US4304853A, “Method of determination for proteases and antiproteases” (priority 1979, dated 1981)
Where a name gives a salt, the structure may show the parent alone. Read-outs that look alike come from different tables or passages of the source.

Experiments:
trypsin = assay: Amperometric determination of substrate hydrolysis by trypsin (oxidation current of liberated pADA); type: biochemical
Experimental: (§1) (a) A potentiostat, which is intended to maintain a constant potential difference between the measurement electrode and the reference electrode. A saw-tooth function generator, which generates a potential which varies between -0.1 and +0.4 V at a rate of 0.2 V/second. A graphic recorder with a good dynamic performance. A polytetrafluoroethylene cell which has a capacity of 5 ml and can hold three electrodes.
(b) Measurement electrode: This consists of a platinum plate which is surrounded by a cylinder of polytetrafluoroethylene (surface area 0.0314 cm^2).
(§2) (e) Solutions: The stock solutions of the enzyme (solution E) and of the substrate (solution S) are freshly prepared. The test solution, to which a given amount of E is added at the time t=0 of the kinetics, is termed A. The buffer, which has a pH of 8.15, is made up of 0.025 M Veronal^(R) and NaCl with an ionic strength of F=0.15.
(§3) (f) Example of an electrode made of carbon paste: 15 g of pure carbon powder are mixed with 9 ml of paraffin oil, for example that sold commercially under the trade name Nujol^(R). An electrode with a surface area of 0.16 cm^2 and a thickness of 3 mm can be shaped from the homogeneously mixed paste.
(§4) The measurement electrode is preconditioned in solution A without the enzyme, in order to impart to it a reproducible and precisely defined surface state before each cycle.
(§5) The preconditioning is achieved by applying a potential which has a saw-tooth profile and changes as a function of time, the potential varying between -0.1 and +b 0.4 V and changing at a rate of 0.2 V/second.
(§6) The electrode can then be used for the kinetic determinations, for which purpose the same saw-tooth potential as for the conditioning is applied every 60 seconds.
After deducting the base current at the particular potential, the current levels recorded at the maximum value of any one wave i=f(U) are proportional to the concentration of the electroactive species liberated during the hydrolysis. […]
The enzyme solution is added at the end of the potentiodynamic cycle which serves to record the base current (the base current has been shifted downwards; it is represented by the broken line). The concentrations corresponding to the current maxima can be read off from the calibration curve (FIG. 3). The conversion is determined as a function of time (maximum 30 minutes). […]
The reciprocal value of the rate (1/V) has been plotted as the ordinate and the reciprocal value of the concentration of the substrate (1/S) has been plotted as the abscissa. The reciprocal value of the rate 1/V was expressed as follows: either as (μA/minute--10 μg of enzyme)^-1 or as (μ mol×10^3 of pADA/minute--10 μg of enzyme). The points o represent an average value of 10 measured values for the rate and the points X represent a graphical average value. […]

thrombin = assay: Amperometric determination of substrate hydrolysis by thrombin (oxidation current of liberated amine); type: biochemical
Experimental: as §1, §2, §3, §4, §5, §6
After deducting the base current at the particular potential, the current levels recorded at the maximum value of any one wave i=f(U) are proportional to the concentration of the electroactive species liberated during the hydrolysis. In the case of short hydrolysis times, a plot of the current levels against time is linear. The relationship between the enzyme concentration E (in μg/ml) and the rate of hydrolysis at time 0 (represented by the ratio (di/dt)o in μA/minute, that is to say by the gradient of the curve i=f (t) at the origin) for an electrode with a surface area of 1 cm^2 is given by the following formula: […]
The procedure is similar to that for trypsin and is also suitable for the determination of further enzymes, also with the aid of other substrates.
These constants (summarized in Table II below) have been obtained with the aid of the electrode prepared in accordance with Example I f).

[1] = carbon paste electrode, buffer a: Tris (0.025 M), NaCl (0.12 M), glycine (0.05 M), DMSO 4.76%, 20° C., pH 8.3
[2] = carbon paste electrode, buffer a: Tris (0.025 M), NaCl (0.12 M), glycine (0.05 M), DMSO 4.76%, 20° C., pH 8.3, read-out: KM: Michaelis constant

Km (trypsin; carbon paste electrode, buffer b: Veronal (0.025 M), NaCl (0.12 M), DMSO 6.35%, 30° C., pH 8.4, read-out: KM: Michaelis constant) | Km (trypsin; hydrolysis with trypsin 10 μg/ml, 30° C., pH 8.15 (TRIS), DMSO 6.35%, LINEWEAVER-BURK diagram FIG. 7, read-out: MICHAELIS-MENTEN constant Km) | Km (thrombin; [2]) | Km (thrombin; hydrolysis with thrombin, procedure similar to that for trypsin, Veronal buffer, read-out: Km) | Compound | VM: maximum rate (trypsin; carbon paste electrode, buffer b: Veronal (0.025 M), NaCl (0.12 M), DMSO 6.35%, 30° C., pH 8.4) | Standardization: current after hydrolysis for one minute (trypsin; hydrolysis of the substrate with 1 mM of trypsin for one minute, per cm^2 of electrode surface area, Veronal buffer pH 8.15) | VM: maximum rate (thrombin; [1]) | Standardization: current after hydrolysis for one minute (thrombin; 0.1 mM of substrate with 0.01 I.U. of thrombin for one minute, Veronal buffer) | Vm (thrombin; hydrolysis with thrombin, procedure similar to that for trypsin, Veronal buffer)
800 µM | 800 µM |  |  | N=C(N)NCCCC(NC(=O)c1ccccc1)C(=O)Nc1ccc(Nc2ccccc2)cc1 (racemic) [D,L-BAPADA, benzoyl-D,L-arginine-p-aminodiphenyl-amide, HCl] | 0.00096 μmole/minute I.U. | 0.295 μA/cm^2 |  |  | 
 |  | 37 µM |  | COc1cc(NC(=O)[C@H](CCCNC(=N)N)NC(=O)[C@@H]2CCCCN2C(=O)[C@H](N)Cc2ccccc2)cc2ccccc12 [H--D--Phe--Pip--Arg--4--MBNA] |  |  | 0.020 μmole/minute I.U. |  | 
 |  | 10 µM | 10 µM | N=C(N)NCCC[C@H](NC(=O)[C@@H]1CCCCN1C(=O)[C@H](N)Cc1ccccc1)C(=O)Nc1ccc(Nc2ccccc2)cc1 [HDL, H-D-phenylalanyl-L-pipecolyl-L-arginyl-p-amino-diphenylamide dihydrochloride] |  |  | 0.10 μmole/minute I.U. | 0.217 μA/cm^2 | 1.1×10^-7 moles/minute×I.U.
